Measurements taken from patent US20040127403A1, “Methods for treating and preventing Gram-positive bacteremias” (priority 2002, published 2004).
In brackets after ≈: the same amount, converted by molar mass. Read-outs that look alike come from different tables or passages of the source.

Experiments:
Experiment in all cases: MIC, NCCLS broth microdilution
Assay type in all cases: cell-based
E. faecium UA392 = details: Enterococcus faecium, UA392, E. faecium UA392, read-out: MIC
Procedure: (§1) The efficacy of ramoplanin was tested against recently isolated VRE that are resistant to linezolid and quinupristin/dalfopristin. The culture media containing ramoplanin was supplemented with 0.02% bovine serum albumin (BSA) to prevent ramoplanin binding to the plastic. MIC values were determined in both cation-adjusted Mueller-Hinton broth (CAMHB) and trypticase soy broth (TSB) by the National Committee for Clinical Laboratory Standards (NCCLS) broth microdilution method. Macromolecular biosynthesis experiments were done by following the incorporation of carbon-14-labeled N-acetylglucosamine, acetic acid, amino acids, uridine, and thymidine into peptidoglycan, fatty acid, protein, RNA and DNA, respectively.

S. aureus ATCC43300 MRSA = details: Staphylococcus aureus, ATCC 43300 / MRSA / VISA, S. aureus ATCC43300 MRSA/VISA, read-out: MIC
Procedure: as §1

S. aureus ATCC27659 MSSA = details: Staphylococcus aureus, read-out: MIC
Procedure: as §1

E. faecalis ATCC29212 = details: Enterococcus faecalis, ATCC29212, E. faecalis ATCC29212, read-out: MIC
Procedure: as §1

E. faecium A5959 Line-R = details: Enterococcus faecium, A5959LINER
Procedure: as §1

E. faecalis ATCC51299 = details: Enterococcus faecalis, ATCC51299, E. faecalis ATCC51299, read-out: MIC
Procedure: as §1

E. faecalis A7789 Line-R = details: Enterococcus faecalis, A7789LINER
Procedure: as §1

E. faecium A2735 Syn-R = details: Enterococcus faecium, A2735SYNR, read-out: MIC
Procedure: as §1

S. epidermidis ATCC35983 = details: Staphylococcus epidermidis, ATCC35983, S. epidermidis ATCC35983, read-out: MIC
Procedure: as §1

S. aureus ATCC27660 MSSA = details: Staphylococcus aureus, read-out: MIC
Procedure: as §1

E. faecium A4192 Syn-R = details: Enterococcus faecium, A4192SYNR, read-out: MIC
Procedure: as §1

E. faecium UA210 = details: Enterococcus faecium, UA210, E. faecium UA210, read-out: MIC
Procedure: as §1

S. epidermidis ATCC14990 = details: Staphylococcus epidermidis, ATCC14990, S. epidermidis ATCC14990, read-out: MIC
Procedure: as §1

E. faecium A6349 Line-R = details: Enterococcus faecium, A6349LINER, read-out: MIC
Procedure: as §1

E. faecium A-5960 Line-R = details: Enterococcus faecium, A5960LINER
Procedure: as §1

E. gallinarum UA604 = details: Enterococcus gallinarum, GALLINARUM, read-out: MIC
Procedure: as §1

E. faecium A6350 Line-R = details: Enterococcus faecium, A6350LINER, read-out: MIC
Procedure: as §1

S. epidermidis ATCC12228 = details: Staphylococcus epidermidis, ATCC12228, S. epidermidis ATCC12228, read-out: MIC
Procedure: as §1

S. aureus ATCC35556 MRSA = details: Staphylococcus aureus, read-out: MIC
Procedure: as §1

E. faecium ATCC700221 = details: Enterococcus faecium, ATCC700221, E. faecium ATCC700221, read-out: MIC
Procedure: as §1

S. aureus ATCC19636 MSSA = details: Staphylococcus aureus, read-out: MIC
Procedure: as §1

S. epidermidis ATCC35984 = details: Staphylococcus epidermidis, ATCC35984, S. epidermidis ATCC35984, read-out: MIC
S. epidermidis ATCC18972 = details: Staphylococcus epidermidis, ATCC18972, S. epidermidis ATCC18972, read-out: MIC

## CC(=O)NC[C@H]1CN(c2ccc(N3CCOCC3)c(F)c2)C(=O)O1 [Linezolid]
E. faecium UA392; Table 6, 1st
  MIC: 4 mg/L (≈ 11.9 µM)
E. faecium UA392; Table 6, 2nd
  MIC: 2 mg/L (≈ 5.93 µM)
S. aureus ATCC43300 MRSA; Table 6, 1st
  MIC: 4 mg/L (≈ 11.9 µM)
S. aureus ATCC43300 MRSA; Table 6, 2nd
  MIC: 2 mg/L (≈ 5.93 µM)
S. aureus ATCC27659 MSSA; Table 6, 1st
  MIC: 4 mg/L (≈ 11.9 µM)
S. aureus ATCC27659 MSSA; Table 6, 2nd
  MIC: 2 mg/L (≈ 5.93 µM)
E. faecalis ATCC29212; Table 6, 1st
  MIC: 4 mg/L (≈ 11.9 µM)
E. faecalis ATCC29212; Table 6, 2nd
  MIC: 2 mg/L (≈ 5.93 µM)
E. faecium A5959 Line-R; Table 6, 1st
  MIC: > 16 mg/L
E. faecium A5959 Line-R; Table 6, 2nd
  MIC: 16 mg/L (≈ 47.4 µM)
E. faecalis ATCC51299; Table 6, 1st
  MIC: 2 mg/L (≈ 5.93 µM)
E. faecalis ATCC51299; Table 6, 2nd
  MIC: 2 mg/L (≈ 5.93 µM)
E. faecalis A7789 Line-R; Table 6, 1st
  MIC: > 16 mg/L
E. faecalis A7789 Line-R; Table 6, 2nd
  MIC: 32 mg/L (≈ 94.9 µM)
E. faecium A2735 Syn-R; Table 6, 1st
  MIC: 4 mg/L (≈ 11.9 µM)
E. faecium A2735 Syn-R; Table 6, 2nd
  MIC: 2 mg/L (≈ 5.93 µM)
S. epidermidis ATCC35983; Table 6, 1st
  MIC: 2 mg/L (≈ 5.93 µM)
S. epidermidis ATCC35983; Table 6, 2nd
  MIC: 2 mg/L (≈ 5.93 µM)
S. aureus ATCC27660 MSSA; Table 6, 1st
  MIC: 4 mg/L (≈ 11.9 µM)
S. aureus ATCC27660 MSSA; Table 6, 2nd
  MIC: 2 mg/L (≈ 5.93 µM)
E. faecium A4192 Syn-R; Table 6, 1st
  MIC: 4 mg/L (≈ 11.9 µM)
E. faecium A4192 Syn-R; Table 6, 2nd
  MIC: 2 mg/L (≈ 5.93 µM)
E. faecium UA210; Table 6, 1st
  MIC: 4 mg/L (≈ 11.9 µM)
E. faecium UA210; Table 6, 2nd
  MIC: 2 mg/L (≈ 5.93 µM)
S. epidermidis ATCC14990; Table 6, 1st
  MIC: 4 mg/L (≈ 11.9 µM)
S. epidermidis ATCC14990; Table 6, 2nd
  MIC: 2 mg/L (≈ 5.93 µM)
E. faecium A6349 Line-R; Table 6, 1st
  MIC: 16 mg/L (≈ 47.4 µM)
E. faecium A6349 Line-R; Table 6, 2nd
  MIC: 16 mg/L (≈ 47.4 µM)
E. faecium A-5960 Line-R; Table 6, 1st
  MIC: > 16 mg/L
E. faecium A-5960 Line-R; Table 6, 2nd
  MIC: 32 mg/L (≈ 94.9 µM)
E. gallinarum UA604; Table 6, 1st
  MIC: 4 mg/L (≈ 11.9 µM)
E. gallinarum UA604; Table 6, 2nd
  MIC: 2 mg/L (≈ 5.93 µM)
E. faecium A6350 Line-R; Table 6, 1st
  MIC: 4 mg/L (≈ 11.9 µM)
E. faecium A6350 Line-R; Table 6, 2nd
  MIC: 2 mg/L (≈ 5.93 µM)
S. epidermidis ATCC12228; Table 6, 1st
  MIC: 2 mg/L (≈ 5.93 µM)
S. epidermidis ATCC12228; Table 6, 2nd
  MIC: 2 mg/L (≈ 5.93 µM)
S. aureus ATCC35556 MRSA; Table 6, 1st
  MIC: 4 mg/L (≈ 11.9 µM)
S. aureus ATCC35556 MRSA; Table 6, 2nd
  MIC: 2 mg/L (≈ 5.93 µM)
E. faecium ATCC700221; Table 6, 1st
  MIC: 4 mg/L (≈ 11.9 µM)
E. faecium ATCC700221; Table 6, 2nd
  MIC: 2 mg/L (≈ 5.93 µM)
S. aureus ATCC19636 MSSA; Table 6, 1st
  MIC: 4 mg/L (≈ 11.9 µM)
S. aureus ATCC19636 MSSA; Table 6, 2nd
  MIC: 2 mg/L (≈ 5.93 µM)
S. epidermidis ATCC35984; Table 6, 1st
  MIC: 4 mg/L (≈ 11.9 µM)
S. epidermidis ATCC35984; Table 6, 2nd
  MIC: 2 mg/L (≈ 5.93 µM)
S. epidermidis ATCC18972; Table 6, 1st
  MIC: 2 mg/L (≈ 5.93 µM)
S. epidermidis ATCC18972; Table 6, 2nd
  MIC: 1 mg/L (≈ 2.96 µM)
